Experiments:
Notch-1 = assay: Western blotting for Notch-1 in MOM-2b cells; assay type: cell-based; conditions: 100 nM
Description: Two cultures of MOM-2b cells (an aggressive melanoma cell line) were cultured in standard medium alone or in the presence of 100 nM of a gamma secretase inhibitor, which interferes with Notch signaling (Supont Compound E; Seiffaert et al., J. Biol. Chem., 275, 34086 (2000)). The cells then were lysed and assayed for the presence of Notch-1 by Western blotting.

MOM-2b cells = assay: Invasion through MATRIOEL coated filters; assay type: cell-based; conditions: MOM-2b cells pretreated overnight with 100 nM
Description: In a second experiment, MOM-2b cells were pretreated overnight with 100 nM compound E or untreated culture medium and then analyzed for invasive behavior by culturing them on MATRIOEL™ coated filters, into which aggressive melanoma will invade. After 20 hours, cells that have not invaded through the filters were discarded and cells that had migrated into the top of the filters were stained, lysed, and then assayed for absorbance at 350 nm to quantitate the number of cells that had invaded through the filter.

Cytotoxicity = assay type: cell-based; conditions: concentrations <300 nM
NF-κB [1] = assay: NF-κB luciferase assay in transfected keratinocytes; assay type: cell-based, human
Description: (§1) Keratinocyte cultures were initiated from discarded neonatal foreskins, in which epidermis was separated from dermis using dispase (Mukherjee et al, Chemical and Structural Approaches to Rational Drug Design (Weiner et al., eds.) CRC Press, pp. 237-61 (Boca Raton, 1994). Keratinocytes were induced to proliferating using a low calcium (0.07 mM), serum-free medium (KGM, Clonetics Corp., San Diego, Calif.). Keratinocytes were grown in 10 cm plastic petri dishes, and passaged at 60-70% confluency, and maintained in a humidified incubator at 37° C. with 5% CO2. Keratinocytes were also grown in 8-well Lab Tek Chambers as previously described (Mukherjee et al., supra). Keratinocytes were used between 2 and 4 passages. In some experiments, keratinocytes were pre-treated with KGM containing an elevated calcium ion concentration (i.e. 2 mM) for 24 hrs prior to addition of JAG-1 peptide, or other stimuli as indicated.
To perform the luciferase-based NF-κB assays, normal keratinocytes were seeded in 6-well plates as previously described (Qin et al., supra). At approximately 50% to 60% confluence, the cells were co-transfected with 0.8 μg of pNF-κB-LUC vector (CLONTECH Laboratories, Palo Alto, Calif.) containing a firefly luciferase gene with K enhancer and 0.2 μg of PRL-TK plasmid DNA which contains Renella Luciferase gene to normalize the transfection efficiency. The same amount of control vector in which the κ enhancer was removed from pNF-κB-LUC was also used to co-transfect the cells.
DNA was transfected into keratinocytes using Fu-Gene 6 Transfection Reagent (Roche Molecular Biochemicals) according to the manufacturer's protocol. After 36 hours of transfection, cells were treated with either TNF-α (10^3 U/ml; R&D Systems, Minneapolis, Minn.) or the indicated peptides.
The preparation of cell lysate and luciferase activity measurements were made with DUAL LUCIFERASE™ Reporter Assay System (Promega, Madison Wis.) according to the manufacturer's instructions. The sample was placed in a TD-20/20 luminometer (CLONTECH Laboratories) for detection of light intensity.

p50 and p65 subunits = assay: Western blot of keratinocyte nuclei for NF-κB subunits; assay type: cell-based, human; conditions: keratinocytes in 2 mM calcium; 30 minutes and 1 hour after addition
Description: (§2) Whole cell lysates, or nuclear and cytoplasmic extracts, were prepared to detect different proteins as previously described (Chaturvedi et al., J. Biol. Chem., 274, 2358-67 (1999)). Briefly, keratinocytes were washed with ice cold phosphate buffered saline (PBS), and harvested by scraping the monolayers into 1 ml PBS, and pelleted in a […] microcentrifuge tube. The cell pellet was suspended in 400 μl of buffer A (10 mM HEPES, 10 mM KCl, 1 mM EDTA, 1 mM EGTA, 1 mM dithiothreitol, 0.5 mM phenylmethlysulfonyl fluoride, and 5 μg/ml leupeptin). After 20 min incubation on ice, 25 μl of 10% Nonidet P-40 was added and then centrifuged briefly. The supernatant represented the cytoplasmic extracts. The nuclear pellet was resuspended in 60-80 μl of buffer C (20 mM HEPES, 0.4 M NaCl, 1 mM EDTA, 1 mM EGTA, 1 mM dithiothreitol, 0.5 mM phenylmethylsulfonyl fluoride, and 5 μg/ml leupeptin) and incubated at 4° C. with shaking for 15 min. The nuclear debris was removed by centrifugation at 4° C.
(§3) For the whole cell lysate, cells were washed with cold PBS and incubated in CHAPS buffer on ice for 15 min. After centrifugation at 4° C., the supernatants were saved as whole cell lysate. The protein concentration of each sample was determined with Bio-Rad protein assay reagent. […]

NF-κB [2] = assay: Electromobility shift assay (EMSA) of keratinocyte nuclear extracts; assay type: cell-based, human; conditions: heterodimers p50 and p65 and p50/p50 homodimers
Description: EMSA were done as described previously (Qin et al., supra). 5 μg of nuclear proteins were incubated on ice with 1 μg of poly(dI-dC) (Amersham Pharmacia Biotech) in a buffer containing 10 mM HEPES, 60 mM KCl, 1 mM dithiothreitol, 1 mM EDTA, and 4% Ficoll for 10 min. The ^32P-labeled double strand NF-κB binding oligonucleotide (10^5 cpm) was then added to the reaction mixture for an additional 20 min on ice. The NF-κB oligonucleotide had the following sequence: SEQ ID NO:14 (5′-[…]-3′). For experiments involving supershift analysis, 2-4 μg of polyclonal antibodies against different subunits of NF-κB (Santa Cruz Biotech) were incubated with nuclear proteins for 30 min on ice prior to addition of ^32P-labeled NF-κB probe. All the reaction mixtures were resolved on 4% polyacrylamide gels.

IκBα = assay: Western blot of keratinocyte cytoplasmic extracts for IκB proteins; assay type: cell-based, human
Description: as §2
For the whole cell lysate, cells were washed with cold PBS and incubated in CHAPS buffer on ice for 15 min. After centrifugation at 4° C., the supernatants were saved as whole cell lysate. The protein concentration of each sample was determined with Bio-Rad protein assay reagent. 30 μg of protein were loaded on 8-12.5% SDS-polyacrylamide gel, transferred to Immobilon-P (polyvinylidene difluoride) membrane and blocked in 5% powdered milk in TBST (50 mM Tris, pH 7.5, 150 mM NaCl, 0.01% Tween 20). The membrane was incubated with primary antibody overnight at 4° C. in 2.5% powdered milk in TBST and then was washed extensively with TBST, and incubated with 1:1500 anti-rabbit or mouse-HRP (Amersham Pharmacia Biotech). Proteins were visualized with the ECL detection kit (Amersham Pharmacia Biotech). The equivalent loading of proteins in each well was confirmed by Ponceau staining.

Notch 1 = assay: Western blot for Notch 1 in keratinocytes; assay type: cell-based, human; conditions: 6 hours and 24 hours after addition
Description: as §2, §3

[3] = test system: Jagged-1 and Notch receptors; assay: Immunostaining of cultured keratinocyte monolayers for Jagged-1 and Notch receptors; assay type: cell-based, human
Description: as §1
(§4) Portions of the epidermal equivalents were fixed in 10% neutral buffered formalin, embedded in paraffin and routinely stained with 1% hematoxylin and eosin. […] When using Lab Tek cultures, these slides were rinsed in PBS and fixed with ice-chilled acetone for 10 mins prior to addition of primary antibodies. Cryostat sections of skin also were fixed using ice-cold acetone. In all cases, a highly sensitive avidin biotin peroxidase procedure (Vectastain Kit, Vector Labs, Burlingame, Calif.) was used with a positive red reaction product obtained using […] as the chromagen.

IKKα = IKKα immunocomplex kinase assay; assay type: cell-based, human; conditions: for kinase activity of IKKα: substrate GST-IκBα (1-54), after 30 and 60 minutes
Description: For immunoprecipitation 2 μg of anti-IKKα and anti-IKKβ were added to the whole cell lysate for 2 hours on ice. 30 μl of protein A-G sepharose beads were added and incubated at […] for 90 minutes. Beads were washed 3 times in wash buffer, and the beads were boiled with 2xSDS sample buffer. Kinase activity was performed using GST-IκBα as substrate (Hu et al., Science, 284, 316-20 (1999)).

keratinocytes = assay: Terminal differentiation of cultured keratinocyte monolayers; assay type: cell-based, human; conditions: for loricrin and involucrin immunostaining: 2 mM calcium keratinocyte cultures; for stratification of keratinocyte monolayer: 2 mM calcium, as early as 3 days following addition
Description: as §1, §4

epidermal equivalents = assay: Living epidermal equivalent model system; assay type: cell-based, human; conditions: for terminal differentiation and cornification: continuously submerged cultures, 4 days later
Description: Reconstituted epidermis, known as epidermal equivalents were purchased from MatTek Corp., Ashland, Mass.
as §4
For these experiments a living epidermal equivalent model system was used, because it provided an opportunity to examine the individual components of the Notch pathway (i.e. Notch ligand and receptors) before, and after, induction of differentiation for keratinocytes maintained in a multi-layered or stratified configuration that closely resembles normal human skin. Epidermal equivalents consist of keratinocytes grown to produce a multi-layered structure that are initially prepared using submerged keratinocytes. Following this initial preparation, the cultures are exposed to an air-liquid interface in a moistened chamber for three days that can initiate the early stage of differentiation, designated as day 0. Under these conditions, approximately 5-7 layers are produced with a progressive flattening of the top level keratinocytes, which can include occasional cells with keratohyalin granules, and focal appearance of loricrin positive cells and corneocytes. When cultures arrived at day 0, they can either be re-submerged in medium or lifted-up and maintained on a support to create an air-liquid interface within a tissue culture well. After lifting of the cultures, the multi-layered keratinocytes are exposed to the air, with the subjacent membrane being moistened and fed only from the underlying medium within the well. Lifting the cultures at day 0, triggers the terminal differentiation process, which typically is completed within about 5 to about 7 days.

PKC-alpha = PKC-alpha localization in keratinocytes; assay type: cell-based, human
Description: as §4

[4] = re-submerged day 0 cultures, observed on day 5

C[C@H](NC(=O)Cc1cc(F)cc(F)c1)C(=O)N[C@H]1N=C(c2ccccc2)c2ccccc2N(C)C1=O [compound E]
activation of Notch-1 (Notch-1): completely blocked | OD350 (cells invaded through the filter) (MOM-2b cells; after 20 hours): 0.378 | inhibition of aggressive behavior in melanoma cells (MOM-2b cells; versus control culture): 75% | cytotoxicity (Cytotoxicity): did not exhibit cytotoxicity

JAG-1: synthetic peptide with Notch agonist activity corresponding to Jagged-1 residues 188-204 (SEQ ID NO:11), part of the DSL region (CDDYYYGFGCNKFCRPR; JAG-1 Notch ligand)
NF-κB activation (luciferase) (NF-κB [1]; high calcium (2 mM) medium): did trigger NF-κB activation | NF-κB activation (luciferase) (NF-κB [1]; low calcium (0.07 mM) medium): not low calcium conditions | intranuclear levels of p50 and p65 subunits (p50 and p65 subunits): markedly enhanced intranuclear levels | NF-κB transcriptional activity (binding to NF-κB probe) (NF-κB [2]): can activate NF-κB transcriptional activity | relatively low constitutive level of IκBα (IκBα; 7-minute to 6-hour time points): slightly reduced | cytoplasmic IκBα level (most prominent inhibitory protein) (IκBα; after 24 hours): no consistent decline | relatively low constitutive level of IκBα (IκBα; after 24 hours): became undetectable | Notch 1 levels (Notch 1): decreased to barely detectable levels | Notch-1 cellular localization ([3]; 24 hours after stimulation): re-distributed to the cytoplasm | Notch 3 immunolocalization ([3]; after addition of peptide): disappearance of both membrane and cytosolic Notch 3 | Notch 4 immunolocalization ([3]; after peptide stimulation): loss of membrane and cytosolic Notch 4 | Jagged-1 cellular localization ([3]; keratinocytes in 2 mM calcium, twenty-four hours after addition): loss of this plasma membrane staining | amount of IKKα present (IKKα; immediately following stimulation): not accompanied by any significant change | kinase activity of IKKα (IKKα): did activate | loricrin and involucrin immunostaining (keratinocytes): strong induction | stratification of keratinocyte monolayer (keratinocytes): began piling-up to form 3-dimensional stratified clusters | terminal differentiation and cornification (epidermal equivalents; 50 μM added on day 0): triggered terminal differentiation and cornification | apoptosis in submerged epidermal equivalent (epidermal equivalents; [4]): reduced the apoptotic process | loricrin expression in submerged epidermal equivalent (epidermal equivalents; [4]): diffuse loricrin expression | stratum corneum formation in submerged epidermal equivalent (epidermal equivalents; [4]): thick stratum corneum layer | PKC-alpha localization (PKC-alpha; epidermal equivalents, upper layers of differentiated keratinocytes): plasma membrane localization for PKC-alpha | PKC-alpha translocation (PKC activation) (PKC-alpha; keratinocyte monolayers): induced translocation of PKC-alpha from the cytoplasm to the plasma membrane

R-JAG: second peptide with agonist activity (SEQ ID NO:12) derived from the same region of Jagged-1, with specific amino acid changes (CDDYYYGFGCNKFGRPRDD; r-JAG1 Notch ligand)
kinase activity of IKKα (IKKα): did activate | loricrin and involucrin immunostaining (keratinocytes): strong induction | stratification of keratinocyte monolayer (keratinocytes): began piling-up to form 3-dimensional stratified clusters | terminal differentiation and cornification (epidermal equivalents; 40 μM added on day 0): triggered terminal differentiation and cornification

SC-JAG: scrambled control peptide without agonist activity (SEQ ID NO:13) (RCGPDCFDNYGRYKYCF; Scrambled JAG peptide) [reference compound]
kinase activity of IKKα (IKKα): little effect | terminal differentiation and cornification (epidermal equivalents; 40 μM added on day 0): not

TNF-α [reference compound]
NF-κB activation (luciferase) (NF-κB [1]; high calcium (2 mM) medium): positive control for NF-κB activation | NF-κB activation (luciferase) (NF-κB [1]; low calcium (0.07 mM) medium): positive control for NF-κB activation | kinase activity of IKKα (IKKα): little effect

Source: patent US20020151487A1, “Method and reagents for epithelial barrier formation and treatment of malignant and benign skin disorders by modulating the notch pathway” (Loyola University Chicago, priority 2000, published 2002)
